Among the data in PubChem BioAssay (NCI) are TGI values, retold here.

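Growth conditions: 96-well plates. Treatment: test compound, 48 hours, 5 concentrations. Analysis: linear interpolation between bracketing concentrations; unreached endpoints set to highest concentration. Definition used: TGI = concentration required for complete inhibition of growth.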

Holding throughout (test): DTP human tumour cell line panel, 48 h
Test [1] relates to BT-549 breast.
Test [2] deals with A549 NSCLC.
Test [3] has as its system HCT-116 colon.
Test [4] deals with LOX IMVI melanoma.
Test [5] concerns M14 melanoma.
Test [6] relates to OVCAR-8 ovarian.
Test [7] relates to UACC-62 melanoma.
Test [8] relates to A498 renal.
Test [9] deals with OVCAR-3 ovarian.
The test system of test [10] is HOP-92 NSCLC.

For the compound `CN(C)CCn1c(=O)c2ccc(NCCCN(C)CCCNc3ccc4c(=O)n(CCN(C)C)c(=O)n5c6ccc(O)cc6c(=O)c3c45)c3c(=O)c4cc(O)ccc4n(c1=O)c23`, the TGI amounted to 0.691 µM in test [1]; 0.786 µM in [2]; 0.49 µM in test [3]; 0.0619 µM in test [4]; 0.805 µM in test [5]; 0.347 µM in test [6]. Further, the results for the TGI in test [7] and in test [8] were 0.215 µM and 0.367 µM, respectively.
In the case of `Cc1nc(N)c(N2CCN(C#N)CC2)c(=O)[nH]1`, the total growth inhibition concentration (TGI) in test [1], in test [2], in test [3], in [4], in test [9] and in test [5] was greater than 100 µM each time. The concentration for total growth inhibition (TGI) in test [6] and in test [8] was greater than 100 µM throughout.
With `O=C(c1ccco1)N(C(=O)N1CCCCC1)c1ccccc1`, the TGI in test [1], in [3], in test [4], in [9], in test [5] and in test [6] was greater than 100 µM in each case. Further, the TGI in [7] and in [8] was greater than 100 µM in each case.
`COC1OC(C)C(NC(=O)OCC(Cl)(Cl)Cl)C2OC(C)(C)OC12` (stereo unspecified): the total growth inhibition concentration (TGI) in test [1], in test [2], in test [10], in test [3], in test [9] and in [5] was greater than 100 µM throughout. Also, the TGI in test [6], in [7] and in test [8] was greater than 100 µM in each case.
With `CCCCCCCC(=O)OCC(COC(=O)C(C)(C)C)OC(=O)Cc1ccccc1` (stereo unspecified), the concentration for total growth inhibition (TGI) in test [2], in test [10], in test [3], in test [4], in test [9] and in [5] was greater than 100 µM in each case. Besides, the TGI in test [6], in test [7] and in test [8] was greater than 100 µM each time.
In the case of `Cc1ccc2c(c1C)C(=O)C1(Cc3cc4c(cc3C1=O)CCC4)C2` (stereo unspecified), the TGI in [1], in test [2], in [10], in [3], in [9] and in test [5] was greater than 100 µM each time. Besides, the TGI in [6], in [7] and in test [8] was greater than 100 µM in each case.
As to `CN(/N=C1\C(=O)Nc2ccccc21)c1ccccc1`, the TGI in test [2], in [10], in [3], in [4], in [9] and in test [5] was greater than 100 µM each time. For the same compound, the TGI in test [6], in test [7] and in test [8] was greater than 100 µM throughout.
Take `CC1CC(N2CCOCC2)=Nc2ccccc2N1C` (stereo unspecified): the TGI in test [1], in test [2], in test [3], in [9], in [5] and in test [6] was greater than 100 µM each time. Also, the concentration for total growth inhibition (TGI) in test [7] and in test [8] was greater than 100 µM each time.
With `COc1ccc2c(c1)c1c(n2CCN2CCCCC2)-c2cccc(OC)c2CC1`, the TGI in test [1] was 41.6 µM; in [2], greater than 100 µM; in test [3], greater than 100 µM; in test [4], 38.7 µM; in [9] it was 34.5 µM; in test [5], 25 µM. Besides, the TGI stood at 32.3 µM in test [6], 32.9 µM in test [7] and 49.2 µM in test [8].
Consider `Cc1c(N2CCOCC2)nc2ccc(Cl)cc2c1-c1ccccc1`, for which the TGI in test [2], in test [10], in [3], in test [4], in [9] and in test [5] was greater than 100 µM in each case. Further, the TGI in test [6], in [7] and in [8] was greater than 100 µM each time.
On to `O=c1c(F)cn2c(=O)n1CCCCCCCn1c(=O)c(F)cn(c1=O)CCCCCCC2`, for which the total growth inhibition concentration (TGI) in test [2], in [10], in [3], in [4], in test [9] and in [5] was greater than 100 µM each time. Also, the TGI in test [6], in test [7] and in test [8] was greater than 100 µM in each case.
On to `CC1=NN(C(=O)Cc2ccccc2)C(=O)/C1=C\c1ccc(O)cc1`, for which the TGI in test [2], in [10], in test [3], in test [4], in test [9] and in test [5] was greater than 100 µM in each case. In addition, the total growth inhibition concentration (TGI) in test [6], in [7] and in test [8] was greater than 100 µM each time.
Take `CC(=O)O[C@@H](c1nccn1Cc1ccccc1)[C@H]1OC(C)(C)O[C@@H]1[C@H]1COC(C)(C)O1`: the concentration for total growth inhibition (TGI) in test [1], in test [2], in test [10], in test [3], in test [4] and in [9] was greater than 100 µM in each case. Also, the TGI in test [6], in test [7] and in test [8] was greater than 100 µM throughout.
In the case of `CC(C)C(Br)CCC1=CCC(Br)(Br)C1` (stereo unspecified), the concentration for total growth inhibition (TGI) in test [1] is 34.9 µM; in [2], 33.8 µM; in test [10] it was 19.5 µM; in test [3] it was 27.9 µM; in test [4], 3.05 µM; in test [9] it was 25.7 µM. Also, the values for the TGI in [5], in test [7] and in [8] were 12.9 µM, 19.9 µM and 32.8 µM, respectively.
For `COc1ccc2ccc3oc(=O)c(C)cc3c2c1`, the concentration for total growth inhibition (TGI) in test [1], in [2], in [3], in [4], in [9] and in [5] was greater than 100 µM in each case. For the same compound, the total growth inhibition concentration (TGI) in test [6], in test [7] and in test [8] was greater than 100 µM each time.
